Laboratory results published in PubChem BioAssay (NCI).
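Cells were grown in 96-well plates and exposed to each compound for 48 hours at five concentrations; endpoints were interpolated linearly between bracketing concentrations, or set to the highest concentration if not reached. GI50 = concentration required for 50% inhibition of growth. TGI denotes the concentration required for complete inhibition of growth.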

Experiments:
Assay in all cases: NCI-60 cell line screen, 48 h
SW-620 colon = system: SW-620 colon
NCI/ADR-RES ovarian = system: NCI/ADR-RES ovarian
DU-145 prostate = system: DU-145 prostate
SK-MEL-5 melanoma = system: SK-MEL-5 melanoma
MDA-MB-231 breast = system: MDA-MB-231 breast
ACHN renal = system: ACHN renal
SK-MEL-28 melanoma = system: SK-MEL-28 melanoma
IGROV1 ovarian = system: IGROV1 ovarian

Row | Structure (SMILES) | GI50 (SW-620 colon) | TGI (SW-620 colon) | GI50 (NCI/ADR-RES ovarian) | TGI (NCI/ADR-RES ovarian) | GI50 (DU-145 prostate) | TGI (DU-145 prostate) | GI50 (SK-MEL-5 melanoma) | TGI (SK-MEL-5 melanoma) | GI50 (MDA-MB-231 breast) | TGI (MDA-MB-231 breast) | GI50 (ACHN renal) | TGI (ACHN renal) | GI50 (SK-MEL-28 melanoma) | TGI (SK-MEL-28 melanoma) | GI50 (IGROV1 ovarian) | TGI (IGROV1 ovarian)
1 | OCCCNC(=S)Nc1ccc(-c2nc3ccccc3s2)cc1 | 47.7 µM | > 100 µM | 25.2 µM | 66.6 µM | 40.9 µM | > 100 µM | 20.9 µM | 47.1 µM | 16.5 µM | 43.5 µM | 21.5 µM | 47.7 µM | 24.9 µM | 70.3 µM | 13.5 µM | 95.4 µM
2 | CCN1CCN(Cc2ccc3cc(C(=O)Nc4cc(NC(=O)c5ccc6c(c5)OCCO6)ccc4F)ccc3n2)CC1 | 0.0462 µM | 11 µM | 0.369 µM | 9.55 µM | 0.0371 µM | 1.18 µM | 0.108 µM | 0.756 µM | 0.0332 µM | 0.569 µM | 0.0274 µM | 0.267 µM | 0.118 µM | 6.75 µM | 0.0297 µM | 0.848 µM
3 | Cn1cc(C2=C(c3cccc(NCC(O)CO)c3)C(=O)NC2=O)c2cc(Cl)ccc21 (centres undefined) | 4.26 µM | 15.7 µM | 12.5 µM | > 25 µM | 5.58 µM | > 19.3 µM | 3.32 µM | 7.14 µM | 5.94 µM | 15.5 µM | 3.53 µM | > 19.6 µM | 5.68 µM | 16.1 µM | 5.62 µM | 15.1 µM
4 | COC(C(=O)[C@@H](O)[C@@H](C)O)[C@@H]1Cc2cc3cc(O[C@H]4C[C@@H](O[C@H]5C[C@@H](O)[C@H](O)C(C)O5)[C@H](O)C(C)O4)c(C)c(O)c3c(O)c2C(=O)[C@H]1O[C@H]1C[C@@H](O[C@H]2C[C@@H](O[C@H]3C[C@@H](O)[C@@H](O)C(C)O3)[C@@H](O)C(C)O2)[C@H](O)C(C)O1 (some centres undefined) | 0.715 µM | > 32.5 µM | > 32.5 µM | > 32.5 µM | 0.61 µM | > 32.5 µM |  |  |  |  | 0.485 µM | > 32.5 µM | 0.147 µM | 1.93 µM |  | 
5 | COc1ccc2cc(C(=O)/C=C/c3ccccc3OC)ccc2c1 | 2.81 µM | > 33.2 µM | 3.19 µM | > 37.4 µM | 2.63 µM | 8.07 µM | 2.75 µM | 15.9 µM | 2.73 µM | 21.7 µM | 2.97 µM | 15.6 µM | 21.3 µM | > 94.8 µM | 0.769 µM | 4.06 µM
6 | CCC1=C[C@H]2CN(CCc3c([nH]c4ccccc34)[C@@](C(=O)OC)(c3cc4c(cc3OC)N(C)[C@H]3[C@@](O)(C(=O)OC)[C@H](OC(C)=O)[C@]5(CC)[C@@H]6C[C@@H]6CN6CC[C@]43[C@@H]65)C2)C1 | 0.0428 µM | 3.89 µM | 0.161 µM | 1.42 µM | 0.0239 µM | 3.15 µM | 0.0143 µM | 0.586 µM | 0.0864 µM | 1.88 µM | 0.144 µM | 6.02 µM | 2.91 µM | 6.48 µM | 0.144 µM | 6.77 µM
7 | CSc1ccc2c(c1)C(=O)c1c-2n(CCCN=[N+]=[N-])c(=O)c2cc([N+](=O)[O-])ccc12 | 1.72 µM | > 100 µM | 3.15 µM | > 100 µM | 1.73 µM | > 100 µM | 2.56 µM | 16.4 µM | > 100 µM | > 100 µM | 0.528 µM | > 100 µM | 51.4 µM | > 100 µM | 8.86 µM | > 100 µM
8 | COc1ccc2c(c1)N(CCO)C1=C(C(=O)OC1)C2c1cccc(Br)c1 (centres undefined) | 0.046 µM | > 100 µM | 0.0397 µM | 0.223 µM | 0.156 µM | 1.15 µM | 0.0407 µM | 0.585 µM | 0.372 µM | 19.4 µM | 0.0824 µM | > 100 µM |  |  | 0.088 µM | > 100 µM
9 | CCOC(=O)C1=C(N)Oc2cc(OC)ccc2C1c1ccc(F)c(F)c1 (centres undefined) | 0.516 µM | 15.9 µM | 0.703 µM | 17 µM | 2.56 µM | 11.4 µM | 1.68 µM | 12.6 µM | 2.48 µM | 13.8 µM | 5.74 µM | 19.8 µM | 6.44 µM | 21.9 µM | 2.72 µM | 20.1 µM
10 | COc1cc2c3c(n(CCCN4CCOCC4)c(=O)c2cc1OC)-c1cc2c(cc1C3=O)OCO2 | 8.94 µM | > 100 µM | 1.57 µM | 27.1 µM | 0.612 µM | > 21.6 µM | 1.34 µM | 12.2 µM | 3.92 µM |  | 0.5 µM | > 100 µM | > 76.9 µM | > 100 µM | > 61 µM | > 100 µM
11 | CNC(=S)N/N=C(/C)CCC/C(C)=N/NC(=S)NC |  | > 100 µM |  | > 100 µM |  | > 100 µM |  | > 100 µM |  | > 100 µM |  | > 100 µM |  | > 100 µM |  | > 100 µM
12 | COc1ccc2c(c1)c(=O)oc1cc(OC/C(=N\O)c3ccc(F)cc3)ccc12 | 26.4 µM | 96.3 µM | 18.2 µM | 49.7 µM | 33.3 µM | > 100 µM | 16.6 µM | 30.8 µM | 18 µM | 43.4 µM | 21 µM | 55.4 µM | 15.7 µM | 31 µM | 20.5 µM | 50.5 µM
13 | O=CNc1ccc2c(c1)Cc1cc([N+](=O)[O-])ccc1-2 | 2.05 µM | > 100 µM | 2.77 µM | > 100 µM | 2.83 µM | > 100 µM | 1.53 µM | > 100 µM | 4.11 µM | > 100 µM | 6.52 µM | > 100 µM | > 22.3 µM | > 100 µM | 3.95 µM | > 100 µM
14 | COc1ccc(/C=C/C(=O)c2ccc(NC(=O)CSc3nnc(-c4cc(OC)c(OC)c(OC)c4)o3)cc2)cc1 | 1.86 µM | 3.6 µM | 2.42 µM | 7.03 µM | 1.75 µM | 3.21 µM | 2.14 µM | 5.24 µM | 1.82 µM | 3.5 µM | 1.72 µM | 3.22 µM | 1.74 µM | 3.4 µM |  | 
15 | CC1=C(C(=O)Nc2ccc(Cl)c(Cl)c2)C(c2cccc(O)c2)NC(=S)N1 (centres undefined) | 12.5 µM | 33.2 µM |  |  | 7.28 µM | 14.5 µM | 8.12 µM | 15.4 µM | 8.44 µM | 20 µM | 9.23 µM | 19.7 µM |  |  | 12.8 µM | 44.2 µM
16 | C#Cc1ccc(-n2c(/C=C/c3ccc4ccccc4n3)nc3ncccc3c2=O)cc1 | 0.387 µM | 1.52 µM | 0.338 µM | 1.23 µM |  |  | 0.246 µM | 0.683 µM | 0.544 µM | 1.65 µM |  |  | 0.904 µM | 2.13 µM | 0.428 µM | 1.58 µM
